Data: patent publication US20110130460A1, “INCREASED CREATINE RETENTION WITH SOLUBLE FIBRES” (priority 2007, published 2011)

Assays:
[1] = Urinary creatine and creatinine excretion after a single 2 g creatine dose; conditions: whatever the form, excretion slightly less than 1 g/24 h
Protocol: (§1) The health status questionnaire was filled in again.
An aliquot (10 mL) was stored at −20° C.

[2] = Plasma creatine kinetics after a single 2 g creatine dose (one-open compartmental model); format: in vivo, human
Protocol: as §1
(§2) Venous blood was collected on heparin as an anticoagulant. The tubes were placed immediately on ice and centrifuged at 3000 g for 6 min at 4° C. Plasma (900 μL) was deproteinized with sulfosalicylic acid 5% (300 μL) and centrifuged again at 3000 g for 6min. NaOH 0.1M (90 μL) was added to supernatant (300 μL) to obtain a pH value of about 7.8. Samples were stored at −20° C.
(§3) An aliquot (10 mL) was stored at −20° C. […] An aliquot was stored at −80° C.
Using a Marquardt algorithm, all kinetics were fitted with the following equation:
C(FD/V*(ka/(ka−kel))*(exp(−kel*(t−tlag))−exp(−ka*(t−tlag)))) (equation 1)
where C is the plasma creatine concentration minus the basal concentration (μM) • if C 0, then data were removed • F is the bioavailability • D is the dose (2 g or 15 300 μmol) • is the volume of distribution • ka is the velocity constant of absorption (first order, h^−1) • kel is the velocity constant of elimination (first order, h^−1) • t is the time (h) • tlag is the lag-time (h)
This equation corresponds to a one-open compartmental model in which ka, kel and tlag are the primary parameters. Knowing their value, new kinetic parameters of plasma creatine were calculated:
AUCO,∞:the area under the curve integrated from zero to infinity
Since the bioavailability (F) may not be measured, only the apparent volume of distribution and the apparent clearance can be estimated:
Vd: the apparent volume of distribution (Vd=V/F, L)
C: the apparent clearance (Cl=Kel·Vd, L.h^−1)

[3] = 21 g/d creatine for 2 weeks; levels within the normal range; cited from earlier work
[4] = Plasma and erythrocyte creatine and creatinine after one week creatine supplementation (3×2 g per day); format: in vivo, human
Protocol: as §1, §2
After the first centrifugation, erythrocytes were washed twice with a similar volume of physiological water (0.9% NaCl, centrifugation: 1000 g, 5 min, 4° C.). After three frozen and defrozen procedures, erythrocytes (300 μL) were deproteinized with sulfosalicylic acid 5% (600 μL) and then centrifuged at 3000 g during 6 min. Supernatant was collected and centrifuged again. The clear supernatant was neutralized with NaOH 0.1M.
as §3

[5] = Questionnaire on side effects after creatine supplementation; format: in vivo, human; conditions: after each period of one week creatine supplementation vs initial visit
From the text: as §1

[6] = Creatine and creatinine in 24 h feces by HPLC; format: in vivo, human; conditions: basal or supplemented, could not be quantified
Protocol: as §1, §3
Both creatine and creatinine content in feces was analyzed by HPLC at 205 nm. After dilution of a feces aliquot in 0.045M ammonium sulfate containing an internal standard (4-[2-aminoethyl]-benzene sulfonamide), the sample was filtered on a 10 kDa membrane. The following conditions were used to identify creatine: 2 Beckman RP-C18 Ultrasphere ODS columns 5μ 25 cm*4.6 mm; elution: A/B (70/30) with 0.05% anhydrous trifluoroacetic acid (TFA) at 1.0 mL/min; A: 0.1% H3PO4 in deionised H2O; B: 1.4 mg sodium dodecylsulfate/mL acetonitril. […] The values reported for creatine in the results section correspond to highest possible estimates including a probable overestimation.

Creatinine urinary excretion, effect of creatine ingestion [1]: not affected
apparent volume of distribution relative to body mass ([2]; after ingestion of 2 g creatine, not influenced by the form ingested): about 75 % of body mass
change of plasma creatinine concentration after single dose ([2]; eight hours following ingestion of 2 g creatine, independent of treatment, basal 53.5±1.50 μM): changed by only a few μM
half-life ([2]; human, plasma, oral, after ingestion of 2 g creatine, mean over the forms, read-out: mean half-life of elimination (converted)): 1.09 ± 0.06 h
erythrocyte creatinine concentration during the experiment ([4]; basal about 25 μM): remained stable
plasma creatine concentration after supplementation, fold higher ([4]; one week, 3×2 g per day, fasted state, post vs pre): 11±2.5 fold
increase of erythrocyte creatine concentration after supplementation ([4]; one week, 3×2 g per day, independent of the form ingested): 88±22%
maximal estimated value of creatine in feces [6]: ≤ 50±5.7 μg per gram fresh feces
SMILES: CN(CC(=O)O)C(=N)N [creatine]
excretion of methylamine and formaldehyde [3]: increased excretion of methylamine and formaldehyde
frequency of declared health troubles (side effects) [5]: No difference was observed in the frequency of declared health troubles except for muscle cramps which were less frequently reported
